Measurements as given in ChEMBL document CHEMBL3272305, “Synthesis and comparative skeletal muscle relaxant activity of some 2,4-imidazolidinediones and their corresponding 5-hydroxy-2,4-imidazolidinediones” (J Med Chem, 1978).
The source made the active and inactive calls. No cut-off for these calls is given here.

What was measured:
[1] = (§1) Inhibition of twitch in Charles River rat diaphragm at 60 mg/L after 5 mins; type: functional
Mus musculus [2] = assay: Induction of skeletal muscle relaxation in po dosed albino mouse after 60 mins; type: functional; settings: 1 h
Mus musculus [3] = species on record: Mus musculus; assay: Induction of muscle incoordination in mouse after 30 mins by rotarod test; type: organism-based, Muscle tissue; settings: in vivo, 0.5 h
Rattus norvegicus [4] = assay: Inhibition of gastrocnemius twitch in iv dosed Sprague-Dawley rat; type: functional
[5] = Therapeutic index, ratio of LD50 for albino mouse to ED50 for induction of straub tail relaxation in albino mouse; type: organism-based; settings: in vivo, read-out: Ratio LD50/ED50
[6] = Toxicity in albino mouse after 72 hrs; type: organism-based; settings: in vivo
Rattus norvegicus [7] = assay: Inhibition of gastrocnemius twitch in Sprague-Dawley rat at cumulative dose of 36.6 mg/kg, iv relative to control; type: functional
Mus musculus [8] = assay: Induction of skeletal muscle relaxation in ip dosed albino mouse after 60 mins; type: functional; settings: 1 h
Mus musculus [9] = species on record: Mus musculus; assay: Muscle relaxant efficacy index, ratio of ED50 for muscle incoordination in mouse to ED50 for induction of straub tail relaxation in albino mouse
Mus musculus [10] = species on record: Mus musculus; assay: Induction of straub tail relaxation in albino mouse assessed as gain of righting reflex in 1 min; type: functional
Rattus norvegicus [11] = species on record: Rattus norvegicus; assay: as §1; type: functional

| Compound | inhibition at 60 µg/mL [1] [%] | ED50 (Mus musculus [2]) [mg/kg] | ED50 (Mus musculus [3]) [mg/kg] | ED50 (Rattus norvegicus [4]) [µmol/kg] | selectivity ratio [5] | LD50 at 72 h [6] [mg/kg] | inhibition in vivo at 36.6 mg/kg (Rattus norvegicus [7]) [%] | ED50 (Mus musculus [8]) [mg/kg] | Ratio ED50 (Mus musculus [9]) | ED50 (Mus musculus [10]) [mg/kg] | inhibition (Rattus norvegicus [11]) |
| --- | --- | --- | --- | --- | --- | --- | --- | --- | --- | --- | --- |
| O=C1CN(/N=C/c2ccc(-c3cccc(C(F)(F)F)c3)o2)C(=O)N1 | ≥ 40 | 647 | 166 | 50 | 1.4 | 274 | -74 | 143 | 0.85 | 184 |  |
| O=C1CN(/N=C/c2ccc(-c3ccc(Cl)c(Cl)c3)o2)C(=O)N1 [CLODANOLENE] | ≥ 40 | > 1000 | 181 | 10 |  | > 7000 | -77 | 647 | <0.18 | > 1000 |  |
| Nc1ccc(-c2ccc(/C=N/N3CC(=O)NC3=O)o2)cc1 |  | > 1000 | > 1000 | > 129 |  | 1040 | -19 | > 1000 |  | > 1000 | inactive |
| O=C1NC(=O)N(/N=C/c2ccc(-c3cccc(C(F)(F)F)c3)o2)C1O (stereo not given) | ≥ 40 | 166 | 85 | 96 |  | 563 | -57 | 244 | <0.09 | > 1000 |  |
| O=C1NC(=O)N(/N=C/c2ccc(-c3ccc(Cl)cc3)o2)C1O (stereo not given) | ≥ 40 | > 1000 | 63 | 16 |  | 522 | -77 | > 1000 | <0.06 | > 1000 |  |
| CC(=O)Nc1ccc(-c2ccc(/C=N/N3CC(=O)NC3=O)o2)cc1 |  | > 1000 | > 1000 | > 112 |  | 1140 | 4 | > 1000 |  | > 1000 | inactive |
| O=C1CN(/N=C/c2ccc(-c3ccc(Cl)cc3)o2)C(=O)N1 | ≥ 40 | > 1000 | 40 | 22 |  | > 6000 | -74 | 1000 | <0.04 | > 1000 |  |
| O=C1CN(/N=C/c2ccc(-c3ccc(F)cc3)o2)C(=O)N1 | ≥ 40 | 112 | 369 | 38 | 1.5 | 1400 | -71 | 105 | 0.4 | 950 |  |
| CC(=O)Nc1ccc(-c2ccc(/C=N/N3C(=O)NC(=O)C3O)o2)cc1 (stereo not given) |  | > 1000 | > 1000 | > 107 |  | 673 | -10 | > 1000 |  | > 1000 | inactive |
| N#Cc1ccc(-c2ccc(/C=N/N3C(=O)NC(=O)C3O)o2)cc1 (stereo not given) | ≥ 40 | > 1000 | 96 | 25 | 0.14 | 104 | -69 | 156 | 0.13 | 743 |  |
| Nc1ccc(-c2ccc(/C=N/N3C(=O)NC(=O)C3O)o2)cc1 (stereo not given) | ≥ 40 | > 1000 | > 1000 | 39 |  | 192 | -67 | > 1000 |  | > 1000 |  |
| O=C1NC(=O)N(/N=C/c2ccc(-c3ccc(Cl)c(Cl)c3)o2)C1O (stereo not given) | ≥ 40 | 109 | 10 | 19 | 6.1 | 209 | -82 | 72 | 0.3 | 34 |  |
| O=C1CN(/N=C/c2ccc(-c3ccc([N+](=O)[O-])cc3)o2)C(O)=N1 [DANTROLENE] | ≥ 40 | 490 | 153 | 7 | 124 | > 7000 | -80 | 83 | 2.7 | 56 |  |
| N#Cc1ccc(-c2ccc(/C=N/N3CC(=O)NC3=O)o2)cc1 | ≥ 40 | > 1000 | 91 | 20 |  | 2340 | -76 | > 1000 | <0.09 | > 1000 |  |
| O=C1NC(=O)N(/N=C/c2ccc(-c3ccc(F)cc3)o2)C1O (stereo not given) | ≥ 40 | > 1000 | 240 | 91 |  | 784 | -53 | 1000 | <0.24 | > 1000 |  |
| O=C1NC(=O)N(/N=C/c2ccc(-c3ccc([N+](=O)[O-])cc3)o2)C1O (stereo not given) | ≥ 40 | > 1000 | 171 | 15 |  | > 5000 | -76 | > 1000 | <0.17 | > 1000 |  |
